Laboratory results taken from US10392368B2, “Pyrazolo and triazolo bicyclic compounds as JAK kinase inhibitors” (THERAVANCE BIOPHARMA R&D IP, LLC, priority 2017, dated 2019).
Read-outs that look alike come from different tables or passages of the source.

How the values were obtained:
[1] = target: T1, JAK1 (Homo sapiens, UniProt P23458); test: Biochemical JAK1 kinase assay (LanthaScreen); conditions: for Ki: read-out: JAK 1 (pKi) (converted)
T1 construct: GST; purchased Life Technologies
Experimental: (§1) A panel of four LanthaScreen JAK biochemical assays (JAK1, 2, 3 and Tyk2) were carried in a common kinase reaction buffer (50 mM HEPES, pH 7.5, 0.01% Brij-35, 10 mM MgCl2, and 1 mM EGTA). Recombinant GST-tagged JAK enzymes and a GFP-tagged STAT1 peptide substrate were obtained from Life Technologies.
(§2) Serially or discretely diluted compounds were pre-incubated with each of the four JAK enzymes and the substrate in white 384-well microplates (Corning) at ambient temperature for 1 h. ATP was subsequently added to initiate the kinase reactions in 10 μL total volume, with 1% DMSO. […] Kinase reactions were allowed to proceed for 1 hour at ambient temperature before a 10 μL preparation of EDTA (10 mM final concentration) and Tb-anti-pSTAT1 (pTyr701) antibody (Life Technologies, 2 nM final concentration) in TR-FRET dilution buffer (Life Technologies) was added. The plates were allowed to incubate at ambient temperature for 1 h before being read on the EnVision reader (Perkin Elmer). Emission ratio signals (520 nm/495 nm) were recorded and utilized to calculate the percent inhibition values based on DMSO and background controls.
(§3) For dose-response analysis, percent inhibition data were plotted vs. compound concentrations, and IC50 values were determined from a 4-parameter robust fit model with the Prism software (GraphPad Software). Results were expressed as pIC50 (negative logarithm of IC50) and subsequently converted to pKi (negative logarithm of dissociation constant, Ki) using the Cheng-Prusoff equation.

[2] = target: T2, JAK3 (Homo sapiens, UniProt P52333); test: Biochemical JAK3 kinase assay (LanthaScreen); set-up: GST; purchased Life Technologies; conditions: for Ki: read-out: JAK 3 (pKi) (converted)
T2 sequence (P52333 1-1124): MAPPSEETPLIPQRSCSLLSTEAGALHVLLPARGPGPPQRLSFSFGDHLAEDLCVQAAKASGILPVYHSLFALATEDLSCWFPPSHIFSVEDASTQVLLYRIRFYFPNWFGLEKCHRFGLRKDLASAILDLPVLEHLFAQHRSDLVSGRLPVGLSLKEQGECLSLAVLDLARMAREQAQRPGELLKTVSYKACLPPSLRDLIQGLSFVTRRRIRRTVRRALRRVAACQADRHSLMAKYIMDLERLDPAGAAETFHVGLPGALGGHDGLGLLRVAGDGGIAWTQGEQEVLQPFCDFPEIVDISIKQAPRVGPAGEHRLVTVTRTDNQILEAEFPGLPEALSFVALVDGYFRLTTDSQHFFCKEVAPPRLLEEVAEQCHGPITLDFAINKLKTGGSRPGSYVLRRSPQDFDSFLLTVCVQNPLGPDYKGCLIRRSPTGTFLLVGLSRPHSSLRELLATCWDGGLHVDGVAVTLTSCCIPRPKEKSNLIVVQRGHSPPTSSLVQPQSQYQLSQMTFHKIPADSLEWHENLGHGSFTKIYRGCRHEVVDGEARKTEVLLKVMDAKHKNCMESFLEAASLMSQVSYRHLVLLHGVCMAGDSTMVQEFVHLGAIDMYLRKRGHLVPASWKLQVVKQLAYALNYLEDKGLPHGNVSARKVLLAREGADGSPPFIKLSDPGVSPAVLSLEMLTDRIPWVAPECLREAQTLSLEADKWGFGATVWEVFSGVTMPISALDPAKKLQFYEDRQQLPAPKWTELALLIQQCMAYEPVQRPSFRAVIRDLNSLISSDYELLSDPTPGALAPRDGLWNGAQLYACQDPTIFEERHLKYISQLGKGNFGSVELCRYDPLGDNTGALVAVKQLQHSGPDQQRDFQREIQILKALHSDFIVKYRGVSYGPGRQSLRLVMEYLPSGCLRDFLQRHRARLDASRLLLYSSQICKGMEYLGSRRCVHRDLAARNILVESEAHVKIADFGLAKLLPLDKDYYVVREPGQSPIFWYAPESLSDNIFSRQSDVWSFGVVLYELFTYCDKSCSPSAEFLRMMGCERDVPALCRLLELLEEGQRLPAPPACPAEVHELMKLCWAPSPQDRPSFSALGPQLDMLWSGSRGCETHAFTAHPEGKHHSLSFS
Experimental: as §1, §2, §3

[3] = test system: IL-2 stimulated pSTAT5 in Tall-1 T cells; test: Cellular JAK3 potency assay: inhibition of IL-2 stimulated pSTAT5 in Tall-1 T cells; assay type: cell-based, human; conditions: for IC50: Homo sapiens, read-out: Tall-1 (pIC50) (converted)
Experimental: The potency of test compounds for inhibition of interleukin-2 (IL-2) stimulated STAT5 phosphorylation was measured in the Tall-1 human T cell line (DSMZ) using AlphaLisa. Because IL-2 signals through JAK3, this assay provides a measure of JAK3 cellular potency.
Compounds were serially diluted in DMSO and dispensed acoustically to empty wells. Assay media (phenol red-free DMEM (Life Technologies) supplemented with 10% FBS (ATCC)) was dispensed (4 μL/well) and plates shaken at 900 rpm for 10 mins. Cells were seeded at 45,000 cells/well in assay media (4 μL/well), and incubated at 37° C., 5% CO2 for 1 hour, followed by the addition of IL-2 (R&D Systems; final concentration 300 ng/ml) in pre-warmed assay media (4 μL) for 30 minutes. After cytokine stimulation, cells were lysed with 6 ul of 3× AlphaLisa Lysis Buffer (PerkinElmer) containing 1× PhosStop and Complete tablets (Roche). The lysate was shaken at 900 rpm for 10 minutes at room temperature (RT). Phosphorylated STAT5 was measured via the pSTAT5 AlphaLisa kit (PerkinElmer). Freshly prepared acceptor bead mixture was dispensed onto lysate (5 μL) under green filtered <100 lux light. Plates were shaken at 900 rpm for 2 mins, briefly spun down, and incubated for 2 hrs at RT in the dark. Donor beads were dispensed (5 μL) under green filtered <100 lux light. Plates were shaken at 900 rpm for 2 minutes, briefly spun down, and incubated overnight at RT in the dark.
To determine the inhibitory potency of test compounds in response to IL-2, the average emission intensity of beads bound to pSTAT5 was measured in a human T cell line. IC50 values were determined from analysis of the inhibition curves of signal intensity versus compound concentration. Data are expressed as pIC50 (negative decadic logarithm IC50) values (mean±standard deviation).

[4] = selectivity: difference of pKi JAK3 and pKi JAK1
[5] = TALL-1, IL-2 stimulated pSTAT5 in Tall-1 T cells

T1 sequence (P23458 whole entry): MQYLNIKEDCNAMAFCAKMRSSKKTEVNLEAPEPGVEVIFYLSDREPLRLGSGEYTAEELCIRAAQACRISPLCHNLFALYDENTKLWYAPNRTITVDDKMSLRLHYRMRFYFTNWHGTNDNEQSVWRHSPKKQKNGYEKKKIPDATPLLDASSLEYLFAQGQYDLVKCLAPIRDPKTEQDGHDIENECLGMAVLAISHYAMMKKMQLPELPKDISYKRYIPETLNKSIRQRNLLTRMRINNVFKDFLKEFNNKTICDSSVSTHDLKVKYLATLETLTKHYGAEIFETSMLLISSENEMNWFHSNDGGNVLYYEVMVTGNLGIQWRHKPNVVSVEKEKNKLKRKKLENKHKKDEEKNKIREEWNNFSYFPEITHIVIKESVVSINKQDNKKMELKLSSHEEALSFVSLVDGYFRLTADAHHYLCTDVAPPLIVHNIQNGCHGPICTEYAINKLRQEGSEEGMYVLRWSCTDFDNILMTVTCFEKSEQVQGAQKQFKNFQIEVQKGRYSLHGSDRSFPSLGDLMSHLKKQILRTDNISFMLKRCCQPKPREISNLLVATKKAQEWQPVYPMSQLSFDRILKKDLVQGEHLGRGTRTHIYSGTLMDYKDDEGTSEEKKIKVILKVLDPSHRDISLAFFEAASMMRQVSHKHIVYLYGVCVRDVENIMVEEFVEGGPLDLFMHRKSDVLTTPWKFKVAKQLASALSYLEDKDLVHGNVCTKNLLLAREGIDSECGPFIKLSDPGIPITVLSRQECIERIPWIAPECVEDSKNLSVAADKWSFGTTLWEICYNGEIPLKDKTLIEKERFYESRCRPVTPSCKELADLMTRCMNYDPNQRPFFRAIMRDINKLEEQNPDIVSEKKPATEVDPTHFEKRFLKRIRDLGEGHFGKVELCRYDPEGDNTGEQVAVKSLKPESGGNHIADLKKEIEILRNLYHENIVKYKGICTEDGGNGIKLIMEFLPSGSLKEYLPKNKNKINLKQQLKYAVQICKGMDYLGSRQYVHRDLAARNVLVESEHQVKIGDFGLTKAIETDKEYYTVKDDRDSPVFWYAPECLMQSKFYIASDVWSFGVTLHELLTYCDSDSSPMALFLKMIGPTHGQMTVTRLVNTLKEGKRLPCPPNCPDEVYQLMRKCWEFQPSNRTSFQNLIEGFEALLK

Structure (SMILES)	Ki [1]	Ki [2]	JAK3 (pKi)-JAK1 (pKi) [2, 4]	IC50 [3, 5]	JAK 1 (pKi) [1]	JAK 3 (pKi) [2]	Tall-1 (pIC50) ([3]; IL-2 stimulated pSTAT5 in Tall-1 T cells)	JAK3 (pKi)-JAK1 (pKi) ([2]; selectivity JAK3 over JAK1, difference of pKi)	IC50 ([3]; TALL-1, IL-2 stimulated pSTAT5, Tall-1 T cells)
CN(C)C/C=C/C(=O)N1CC[C@H](Oc2cc(-c3ccc(O)c(Cl)c3)cc3[nH]ncc23)C1 [Compound 1-3]	> 100 nM	0.1 to 1 nM	A (a value of 3 or above)	31.6 to 200 nM					
CN(C)C/C=C/C(=O)N1CC[C@H](Oc2cc(-c3ccc(O)c(F)c3)cc3[nH]ncc23)C1 [Compound 1-4]	> 100 nM	0.1 to 1 nM	A (a value of 3 or above)	200 to 1000 nM					
C=CC(=O)N1CC[C@H](Oc2nc(-c3ccc(O)cc3)nc3[nH]ncc23)C1 [Compound 1-6]	> 100 nM	0.1 to 1 nM	A (a value of 3 or above)	200 to 1000 nM					
CN(C)C/C=C/C(=O)N1CC[C@H](Oc2nc(-c3ccc(O)cc3)cc3[nH]ncc23)C1 [Compound 1-7]	> 100 nM	0.1 to 1 nM	B (a value of 2.3 to 3)	200 to 1000 nM					
C=CC(=O)N1CC[C@H](Oc2cc(-c3ccc(O)cc3)nc3[nH]ncc23)C1 [Compound 1-9]			A (a value of 3 or above)		E (a pKi value of 7 or below (Ki of 100 nM or above))	A (a pKi value≥10 (Ki≤0.1 nM))	C (a pIC50 value between 6 and 6.7 (IC50 between 1 μM and 200 nM))		
C[C@@H]1C[C@H](Oc2cc(-c3ccc(O)cc3)cc3[nH]ncc23)CN1C(=O)/C=C/CN(C)C [Compound 1-10]	> 100 nM	0.1 to 1 nM	A (a value of 3 or above)	200 to 1000 nM					
C=CC(=O)N1C[C@@H](Oc2cc(-c3ccc(O)cc3)cc3[nH]ncc23)C[C@@H]1C [Compound 1-12]	> 100 nM	0.1 to 1 nM	A (a value of 3 or above)	31.6 to 200 nM					
C=CC(=O)N1CC[C@H](Oc2cc(-c3ccc(O)c(F)c3F)cc3[nH]ncc23)C1 [Compound 1-13]	> 100 nM	0.1 to 1 nM	B (a value of 2.3 to 3)	31.6 to 200 nM					
C=CC(=O)N1CC[C@H](Oc2cc(-c3cc(F)c(O)c(F)c3)cc3[nH]ncc23)C1 [Compound 1-14]	> 100 nM	< 0.1 nM	A (a value of 3 or above)	31.6 to 200 nM					
C=CC(=O)N1CC[C@H](Oc2cc(-c3ccc(O)c(F)c3)cc3[nH]nc(C)c23)C1 [Compound 1-23]	10 to 100 nM	0.1 to 1 nM	B (a value of 2.3 to 3)	< 31.6 nM					
C=CC(=O)N1CC[C@H](Oc2nc(-c3ccc(O)cc3)nc3[nH]nc(C(F)F)c23)C1 [Compound 1-25]	> 100 nM	0.1 to 1 nM	A (a value of 3 or above)	31.6 to 200 nM					
CN(C)C/C=C/C(=O)N1CC[C@H](Oc2nc(-c3ccc(O)c(F)c3)cc3[nH]ncc23)C1 [Compound 1-28]	> 100 nM	0.1 to 1 nM	B (a value of 2.3 to 3)	200 to 1000 nM					
C=CC(=O)N1CC[C@H](Oc2cc(-c3cc(F)c(O)cc3F)cc3[nH]nc(C)c23)C1 [Compound 1-30]	10 to 100 nM	< 0.1 nM	B (a value of 2.3 to 3)	31.6 to 200 nM					
C=CC(=O)N1CC[C@H](Oc2cc(-c3ccc(O)c(Cl)c3)nc3[nH]nc(C)c23)C1 [Compound 1-32]	> 100 nM	0.1 to 1 nM	A (a value of 3 or above)	200 to 1000 nM					
C=CC(=O)N1CC[C@H](Oc2nc(-c3ccc(O)c(Cl)c3)cc3[nH]nc(C)c23)C1 [Compound 1-35]	10 to 100 nM	< 0.1 nM	A (a value of 3 or above)	< 31.6 nM					
C=CC(=O)N1CC[C@H](Oc2nc(-c3ccc(O)c(Cl)c3)nc3[nH]nc(C)c23)C1 [Compound 1-37]	> 100 nM	0.1 to 1 nM	A (a value of 3 or above)	200 to 1000 nM					
CN(C)C/C=C/C(=O)N1CCC(C)(Oc2cc(-c3ccc(O)cc3)cc3[nH]ncc23)CC1 [Compound 6-9]								A (a value of 3 or above)	31.6 to 200 nM
